Source: patent US9580398B2, “Compounds, compositions, and methods for modulating ferroptosis and treating excitotoxic disorders” (The Trustees of Columbia University in the City of New York, priority 2012, dated 2017)

Key:
Calu-1 cells = assay: Erastin-induced ferroptosis in Calu-1 cells with NOX pathway inhibitors; format: cell-based, human
Experimental: (§1) Cell viability was typically assessed in 384-well format by Alamar Blue (Invitrogen) fluorescence (ex/em 530/590) measured on a Victor3 platereader (Perkin Elmer, Waltham, Mass.). In some experiments, Trypan Blue dye exclusion counting was performed using an automated cell counter (ViCell, Beckman-Coulter Inc., Brea, Calif.). Cell viability in test conditions is reported as a percentage relative to the negative control treatment.

BJeLR cells = assay: Erastin-induced death and ROS production in BJeLR cells; format: cell-based, human; conditions: erastin 10 μM, 6-AN 200 μM
Experimental: The day before the experiment, 200,000 cells/well were seeded in 6-well dishes (Corning Inc., Corning, N.Y.). The day of the experiment, cells were treated with test compounds for the indicated times, then harvested by trypsinization, resuspended in 500 μL Hanks Balanced Salt Solution (HBSS, Gibco, Invitrogen Corp., Carlsbad, Calif.) containing either H2DCFDA (25 μM), C11-BODIPY(581/591) (2 μM) or MitoSOX (5 μM) (all from Molecular Probes, Invitrogen) and incubated for 10 minutes at 37° C. in a tissue culture incubator. Cells were then resuspended in 500 μL of fresh HBSS, strained through a […] cell strainer (BD Falcon, BD Biosciences, San Jose, Calif.), and analyzed using a flow cytometer (FACSCalibur or Accuri C6, BD Biosciences), which was equipped with 488-nm laser for excitation. Data was collected from the FL1 (H2DCFDA, C11-BODIPY) or FL2 channel (MitoSOX). A minimum of 10,000 cells were analyzed per condition.
as §1

BJeLR and HT-1080 cells = assay: Measurement of ATP levels; format: cell-based, human; conditions: normalized to viability
Experimental: ATP levels were evaluated using the ApoSENSOR ATP Assay Kit (Biovision Inc., Milpitas, Calif.) according to the manufacturer's instructions. 2000 HT-1080 or BJeLR cells were seeded in 96-well white bottom plates (Falcon). Cells were treated 12 hours later with compound as above for the TEM. Prior to luminescence measurement, medium was removed and cells were lysed and incubated with ATP Monitoring Enzyme. Luminescence was measured using a Victor3 platereader equipped with an infrared emission filter every 30 seconds for 10 minutes. Typically the first reading was used for data analysis. Parallel cell culture treatments were performed in 96-well clear bottom plates and cell viability was determined using Alamar Blue. These values were used to normalize ATP levels to cell viability.

system xc− = molecular target: T1, system xc− (Homo sapiens, UniProt Q9UPY5); assay: [14C]cystine uptake assay (Na+-independent); format: cell-based; conditions: HT-1080 cells; erastin 10 μM, glutamate 50 mM, SAS 1 mM
T1 construct: endogenous in cells; host or cells: HT-1080 (American Type Culture Collection)
T1 sequence (Q9UPY5 1-501): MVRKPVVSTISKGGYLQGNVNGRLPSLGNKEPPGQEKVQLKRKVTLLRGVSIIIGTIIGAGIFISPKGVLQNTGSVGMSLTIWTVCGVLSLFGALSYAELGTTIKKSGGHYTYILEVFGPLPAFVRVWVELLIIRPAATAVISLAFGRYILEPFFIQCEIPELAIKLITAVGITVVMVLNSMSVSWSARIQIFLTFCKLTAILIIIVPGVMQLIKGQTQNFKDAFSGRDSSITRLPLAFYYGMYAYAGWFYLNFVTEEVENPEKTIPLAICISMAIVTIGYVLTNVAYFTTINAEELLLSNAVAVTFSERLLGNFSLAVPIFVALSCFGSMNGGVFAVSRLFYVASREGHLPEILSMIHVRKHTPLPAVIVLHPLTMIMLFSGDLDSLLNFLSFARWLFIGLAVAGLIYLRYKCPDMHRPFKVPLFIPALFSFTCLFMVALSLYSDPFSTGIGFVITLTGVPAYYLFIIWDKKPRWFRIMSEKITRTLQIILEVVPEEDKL
T1 sequence (P08195 1-529 partner): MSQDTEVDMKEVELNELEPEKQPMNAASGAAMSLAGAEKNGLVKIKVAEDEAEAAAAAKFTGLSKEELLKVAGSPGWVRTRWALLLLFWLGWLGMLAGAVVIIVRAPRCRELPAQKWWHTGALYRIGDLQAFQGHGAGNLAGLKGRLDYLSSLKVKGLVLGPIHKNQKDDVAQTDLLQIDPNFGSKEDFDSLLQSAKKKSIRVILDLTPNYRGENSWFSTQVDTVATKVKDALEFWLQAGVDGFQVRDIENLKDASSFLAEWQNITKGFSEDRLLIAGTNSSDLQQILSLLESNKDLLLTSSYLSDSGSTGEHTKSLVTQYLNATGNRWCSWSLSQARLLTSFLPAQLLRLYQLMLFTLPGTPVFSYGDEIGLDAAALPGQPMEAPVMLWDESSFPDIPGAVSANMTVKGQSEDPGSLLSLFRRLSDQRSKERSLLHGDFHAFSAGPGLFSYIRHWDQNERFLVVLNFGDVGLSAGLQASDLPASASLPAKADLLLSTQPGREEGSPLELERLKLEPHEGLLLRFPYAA
Experimental: 200,000 HT-1080 cells/well were seeded overnight in 6-well dishes (Corning). […] At this point, in each well the buffer was replaced with 600 μL uptake buffer containing compound and 0.12 μCi (80-110 mCi/mmol) of L-[3,3′-^14C]-cystine (Perkin Elmer) and incubated for 3 minutes at 37° C. Cells were then washed three times with ice-cold uptake buffer and lysed in 500 μL 0.1 M NaOH. To this lysate was added 15 mL of scintillation fluid and radioactive counts per minute were obtained using a scintillation counter. All measurements were performed in triplicate for each condition.

HT-1080 cells = assay: Erastin-induced death in HT-1080 cells with co-treated inhibitors (viability, microscopy); format: cell-based, human; conditions: HT-1080 cells
Experimental: as §1
Phase contrast images were acquired using an AMG EVOS FL (Advanced Microscopy Group) microscope equipped with a 10× phase-contrast objective. Three independent fields were acquired for each experimental condition. Representative samples from one field of view are shown.

[1] = test system: SLC7A11 mRNA in HT-1080 cells; assay: SLC7A11 mRNA levels by RT-qPCR; format: cell-based, human
Experimental: RNA was extracted using the Qiashredder and Qiagen RNeasy Mini kits (Qiagen) according to the manufacturer's protocol. 2 μg total RNA for each sample was used as input for each reverse transcription reaction, performed using the TaqMan RT kit (Applied Biosystems, Life Technologies Corp., Carlsbad, Calif.). Primer pairs were designed for target transcripts using Primer Express 2.0 (Applied Biosystems). Quantitative PCR reactions were performed using the Power SYBR Green PCR Master Mix (Applied Biosystems). Triplicate samples per condition were analyzed on an Applied Biosystems 7300 qPCR instrument using absolute quantification settings. Differences in mRNA levels compared to HPRT1 or ACTB internal reference control were computed between control and experimental conditions using the ΔΔCt method.

Compound	suppression of erastin-induced ferroptosis in Calu-1 (Calu-1 cells)	Na+-independent uptake of [14C]cystine (system xc−)	further results
NC(=O)c1ccc(N)nc1 [6-AN, 6-aminonicotinamde]	strongly suppressed		cell death and ROS production in erastin-treated BJeLR (BJeLR cells): prevented cell death as well as ROS production
c1ccc2c(c1)[I+]c1ccccc1-2 [DPI, diphenylene iodonium]	strongly suppressed		
CN(C)c1cccc(-c2c3c(=O)n(-c4ccccc4Cl)[nH]c3cc(=O)n2C)c1 [GKT137831]	strongly suppressed		
OO [H2O2]			intracellular ATP (BJeLR and HT-1080 cells): substantial depletion of intracellular ATP
COC(=O)c1ccc([C@@H]2c3[nH]c4ccccc4c3C[C@@H](C(=O)OC)N2C(=O)CCl)cc1 [RSL3]		had no effect	
O=C(O)c1cc(/N=N/c2ccc(S(=O)(=O)Nc3ccccn3)cc2)ccc1O [SAS, sulfasalazine]		abolished	
N[C@@H](CCC(=O)O)C(=O)O [glutamate]		abolished	
OCCS [β-ME, β-mercaptoethanol, reference compound]			inhibition of cell death induced by erastin, SAS and glutamate (HT-1080 cells): strongly inhibited cell death; effect on erastin/SAS-induced SLC7A11 upregulation [1]: suppressed
